Measured values from article PMC10035904, “Synthesis of novel sulphamethoxazole derivatives and exploration of their anticancer and antimicrobial properties” (PLOS ONE, 2023).
≈ marks a conversion by molar mass, not a printed value.

Assays:
Format in all cases: cell-based
[1] = test system: human clear cell renal cell carcinoma line (CaKi-1); test: MTT cell viability assay, CaKi-1; details: 72 hours of incubation, n = 3, read-out: EC50 against CaKi-1
Method: The human clear cell renal cell carcinoma line (CaKi-1) was obtained from American Type Culture Collection (ATCC, Manassas, VA). The human prostate carcinoma cell line PPC-1 was originally obtained from ATCC and kindly provided by Prof. Tambet Teesalu (University of Tartu, Estonia). Human foreskin fibroblasts (HF) CRL-4001 were originally obtained from ATCC and kindly provided by Prof. Helder Santos (University of Helsinki, Finland). Cells were cultured in Dulbecco’s Modified Eagle’s GlutaMAX medium (Gibco (Carlsbad, CA, USA) supplemented with 10,000 U/mL penicillin, 10 mg/mL streptomycin (Gibco), and 10% fetal bovine serum (Gibco). During cell passaging, Tryple Express reagent (Gibco) was used for cell detachment. Cell cultures were grown at 37°C in a humidified atmosphere containing 5% CO2. They were used until the passage of 20.
The effect of synthesized compounds on cell viability was studied using 3-(4,5-dimethylthiazol-2-yl)-2,5-diphenyltetrazolium bromide (MTT; Sigma-Aldrich Co., St Louis, MO, USA) assay, as described elsewhere. […] The absorbance was measured at 570 and 630 nm using a multi-detection microplate reader. The compound effect on cell viability was calculated using a formula (1): Relativecellviability%=A−A0/ANC−A0 (1) Where: […]

[2] = test system: Pseudomonas aeruginosa ATCC 27853; test: Serial broth dilution in liquid medium, P. aeruginosa; details: ATCC27853, Mueller-Hinton broth, 24 hours, n = 3
Method: (§1) Antibacterial and antifungal susceptibility to the compound 16b was tested using a serial broth dilution technique in Mueller-Hinton broth II (BBL, Cockeysville, USA), as described elsewhere. All procedures were done in aseptic conditions. Standard bacterial and fungal cultures were used: Staphylococcus aureus ATCC 25923, Staphylococcus epidermidis ATCC 12228, Escherichia coli ATCC 25922, Enterococcus faecalis ATCC 29212, Klebsiella pneumoniae ATCC 33499, Pseudomonas aeruginosa ATCC 27853, Proteus mirabilis ATCC 12459, Bacillus cereus ATCC 8035, and Candida albicans ATCC 60193. Standard cultures of nonsporic bacteria S. aureus, S. epidermidis, E. coli, E. faecalis, K. pneumoniae, P. aeruginosa and P. mirabilis were cultivated for 20–24 hours at 37°C in Mueller-Hinton Agar (BBL, Cockeysville, USA). A bacterial suspension was prepared from cultivated bacterial cultures in physiological solution according to turbidity standard 0.5 McFarland. Standard culture of sporic bacteria B. cereus was cultivated for 7 days at 37°C in Mueller-Hinton II Agar. […] Then the absorbance was measured at 600 nm using a multi-detection microplate reader. […]

[3] = test system: Bacillus cereus ATCC 8035; test: Serial broth dilution in liquid medium, B. cereus; details: Mueller-Hinton broth, 24 hours; result in words
Method: as §1

[4] = test system: Enterococcus faecalis ATCC 29212; test: Serial broth dilution in liquid medium, E. faecalis; details: ATCC29212, Mueller-Hinton broth, 24 hours, 50% reduction of microbial growth, n = 3
Method: as §1

[5] = test system: Klebsiella pneumoniae ATCC 33499; test: Serial broth dilution in liquid medium, K. pneumoniae; details: ATCC33499, Mueller-Hinton broth, 24 hours, n = 3
Method: as §1

[6] = test system: Staphylococcus epidermidis ATCC 12228; test: Serial dilution on solid agar, S. epidermidis; details: ATCC12228, solid Mueller-Hinton agar, 24 hours
Method: (§2) Antimicrobial activity of compound 16b on solid agar was tested using the same microbial cultures, and the same suspension preparation procedure, as described in above section. All procedures were done in aseptic conditions.
(§3) Mueller-Hinton agar was boiled and kept at to 37 °C during the whole procedure. Compound 16b solution was prepared in DMSO right before experiment. The Agar was mixed with compound solution at different ratios to make the final compound concentrations of 1 mM, 400 μM, 200 μM and 100 μM. Then 10 ml of prepared solution was poured into sterile Petri dishes (85 mm in diameter) and kept in aseptic conditions while the agar solidified. The agar with 0.5% of DMSO served as a negative control. With the help of loop standard microbial cultures by 0.1 ml were poured on the surface of prepared agar with investigative compound. Then Petri dishes were kept for 24 hours in thermostatic conditions.
(§4) The minimal dilution, i.e. the lowest concentration in μg/mL of the investigative and comparison compounds that inhibited visible growth of microorganisms was the minimal inhibitory concentration (MIC).

[7] = test system: Escherichia coli ATCC 25922; test: Serial dilution on solid agar, E. coli; details: ATCC25922, solid Mueller-Hinton agar, 24 hours
Method: as §2, §3, §4

`Cc1cc(NS(=O)(=O)c2ccc(NCCC(=O)NN=Cc3ccc([N+](=O)[O-])o3)cc2)no1` [Compound 16b, N-(5-methylisoxazol-3-yl)-4-((3-(2-((5-nitrofuran-2-yl)methylene)hydrazineyl)-3-oxopropyl)amino)-benzenesulfonamide] was tested, and the EC50 [1] was 12.4 ± 1.6 µM, the EC50 [2] was greater than 100 µM and the “sensitivity of B. cereus in liquid medium” value [3] was “most sensitive”. For the same compound, the EC50 [4] was 90 ± 6 µM, the EC50 [5] was greater than 100 µM and the MIC [6] was 100 µM (≈ 46.2 µg/mL). The MIC [7] was 400 µM (≈ 185 µg/mL).
